Experimental data taken from patent US9607202B2, “Methods of generating trophectoderm and neurectoderm from human embryonic stem cells” (UNIVERSITY OF PITTSBURGH—OF THE COMMONWEALTH SYSTEM OF …, priority 2009, dated 2017).

Legend:
Type in all cases: cell-based, human
[1] = tested on: pluripotent hESC, line H7; experiment: TSA or HDAC siRNA on pluripotent hESC in mTeSR: developmental and epigenetic markers (Arrayscan); details: TSA 0.5, 1.0 and 2.0 nM for 2 days
Protocol: In all panels of FIG. 11, pluripotent hESC, line H7, were cultured in mTeSR media were plated in 96 well plates, fixed and immunostained for developmental and epigenetic markers, and the intensity was measured using the Thermo Fisher Arrayscan. 300 cells per well, 3 wells per condition were measured and standard deviations (error bars) and T Tests were evaluated. […] Anti-HDAC3 antibodies confirms that siRNA directed against HDAC3, but not HDAC1, HDAC2, or control knocked down the concentration of HDAC3 (P<0.05, data not background subtracted). […] This protein changes colony texture by producing smooth, homogeneous colonies. […] This marker is selective for high cells with high levels of pluripotency.

hESCs [2] = experiment: HDAC inhibition with TSA on BMP4-induced hESC differentiation in MIM
Text: Though not TE-selective, BMP4 supplementation to MIM was the most robust protocol for hESC differentiation to multiple lineages. To test whether or not TSA caused lineage specific inhibition, this protocol was used to assess HDAC inhibition on hESC differentiation to TE, ME or ExE. […] Thus HDAC inhibition delayed BMP4-induced hESC differentiation in the short-term, without altering lineage selection
96-well Microplates were scanned using the 5 or 10× objective on the ArrayScan V Automated image analysis was performed using the Compartmental Analysis BioApplication using Hoechst for identification of nuclei and various transcription factor antibodies (Table 2). Nuclear-specific fluorescence intensity was determined from approximately 300 single cells per well from 3-6 independent wells to produce a well-average nuclear intensity for each measurement Mean and standard deviation were calculated from multiple wells. Fold change of the mean intensities were normalized against matched unstimulated external controls, usually the pluripotent condition, to divide out differences due to efficiency of antibody-antigen binding and chromophore quantum yield. […] Select conditions are additionally compared in bar graph format to show standard deviations and T-tests.
Colony morphology was quantified by statistical multiresolution analysis of image texture (Mangoubi et al., 2007; Sammak et al., 2008). Image texture is a mathematical measure of the size and sharpness of objects in the image, which is illustrated in one dimension by an intensity line profile (FIG. 10). […] Therefore, we employ texture analysis as an integrated measure of colony morphology. Texture was measured using wavelet analysis (Do and Vetterli, 2002), a generalization of Fourier analysis, to decompose colony texture in phase contrast images (4× objective, Nikon TMS microscope), producing a joint probability density function for the wavelet coefficients from various scales. Different culture conditions can be distinguished as belonging to distinct classes. Each class is thus represented by a probability density function, and quantitative comparative features for classifying and statistically distinguishing colony textures are extracted from the density functions. One such feature is the Kullback-Leibler (KL) distance (Do and Vetterli, 2002). […] Specifically the KL distance between a pair of colonies from the same class is shorter than a pair from different classes.

hESC = experiment: TSA toxicity in hESC
hESCs [3] = experiment: TSA-mediated inhibition of noggin induction of neurectoderm differentiation
Protocol: The hESCs were grown and passaged via standard collagenase methods and passaged into two ibidi plastic 8-well slides. All hESCs were plated onto feederless plates with Stempro Media for 24 hours. hESCs were 50% confluent at time of passage and split 1:5.
All plates were fed with Neural Differentiation Media (1:1 mix of D-MEM/F12 supplemented with 1×N2 and Neurobasal medium supplemented with B27 (all from Gibco/Invitrogen); supplemented with 100 ng/ml mouse recombinant noggin (R & D systems), 50 U/ml penicillin/50 μg/ml streptomycin (Invitrogen) and 2 mML-glutamine (Invitrogen)) starting at day 0 (100 ng/mL noggin in N2B/27 with media changed daily). Six wells in each of two plates was treated with TSA (0-25 nM daily beginning 24 hours s/p plating hESC
Colonies were stained with HDACI and Nestin. These proteins co-stained in a peri-nuclear filamentous pattern consistent with previous Nestin distribution. Pax6 expression was negative.

[4] = 2 nM TSA in MIM plus BMP4, 48 hours, relative to BMP4 alone

**Q.** With `CC(/C=C/C(=O)NO)=C\[C@@H](C)C(=O)c1ccc(N(C)C)cc1` [TSA, trichostatin A] as the compound, how does the “DNA methylation on 5'cytosine” value [1] read?
**A.** The value was “decreased”.

**Q.** What about the GTCM2 [1] of the same compound?
**A.** The GTCM2 was “increased”.

**Q.** And the H3K9me3 [1]?
**A.** Its H3K9me3 is “decreased”.

**Q.** And the H3K27me3 [1]?
**A.** Its H3K27me3 is “decreased”.

**Q.** What about the HDAC3 [1] of the same compound?
**A.** The HDAC3 was “significantly reduced”.

**Q.** What about the Nanog [1] of the same compound?
**A.** The Nanog was “increased”.

**Q.** What about the “histone acetylation on H3K9” value [1] of the same compound?
**A.** The value was “decreased acetylation”.

**Q.** What about the “increase of colony size” value [1] of the same compound?
**A.** The value was 2 fold.

**Q.** What about the “peripheral F-actin” value [1] of the same compound?
**A.** Its value is “increased”.

**Q.** And the Oct4 ([1]; dose dependent)?
**A.** The Oct4 was “increased”.

**Q.** What about the CDX2 expression (hESCs [2]; [4]) of the same compound?
**A.** The CDX2 expression was “decrease”.

**Q.** And the GATA6 expression (hESCs [2]; [4])?
**A.** Its GATA6 expression is “decrease”.

**Q.** What about the OCT4 level (hESCs [2]; [4]) of the same compound?
**A.** Its OCT4 level is “significant OCT4 level increase”.

**Q.** And the brachyury expression (hESCs [2]; [4])?
**A.** Its brachyury expression is “decrease”.

**Q.** What about the “expression of HDAC3” value (hESCs [2]; TSA added to MIM with BMP4) of the same compound?
**A.** Its value is “significantly reduced”.

**Q.** And the “methylation of histone H3K9” value (hESCs [2]; TSA added to MIM with BMP4)?
**A.** The value was “significantly reduced”.

**Q.** And the “BMP4-induced epithelial transformation (colony morphology by texture analysis)” value (hESCs [2]; TSA in MIM plus BMP4, 48 hours)?
**A.** The value was “significantly delayed”.

**Q.** And the “highest concentration without toxic effects” value (hESC)?
**A.** Its value is 1 nM.

**Q.** And the “molar sensitivity in hESC” value (hESCs [3])?
**A.** The value was 1 nM.

**Q.** What about the “HDAC (HDAC1 expression)” value (hESCs [3]; 1.0 nM TSA) of the same compound?
**A.** The value was “reduces”.

**Q.** What about the expression of nestin (hESCs [3]; 1.0 nM TSA) of the same compound?
**A.** The expression of nestin was “reduces”.

**Q.** And the “methylation of histone H3 on lysine 9” value (hESCs [3]; 1.0 nM TSA)?
**A.** The value was “reduces”.

**Q.** And the “effect on cell-cell adhesion and cell motility” value (hESCs [3]; 5 nM TSA, noggin differentiation media, 48 hrs)?
**A.** Its value is “reduced cell-cell adhesion and increased cell motility”.

**Q.** And the “longer-term formation of neurectoderm” value (hESCs [3]; TSA treatment for 4 or more days)?
**A.** Its value is “did not inhibit longer-term formation of neurectoderm”.

**Q.** And the neurectoderm formation (hESCs [3]; TSA treatment for 2 days at the initiation of differentiation)?
**A.** The neurectoderm formation was “inhibited neurectoderm formation”.
